Data: patent publication US10744072B2, “Cosmetic composition for oral administration for reinforcing the skin barrier” (NUTRICOS Technologies, priority 2015, dated 2020)

Legend:
Type in all cases: cell-based
[1] = system: GAPDH; experiment: Gene expression of reference gene GAPDH in human keratinocytes NHEK per RT-qPCR; conditions: each compound at 10 μg/ml, 18 hours incubation
Description: (§1) The effect of the lycopene and manganese was studied separately then in combination on the gene expression profile (RNAm) of human keratinocytes NHEK (normal human epidermal keratinocytes) per RT-qPCR.
(§2) A 24-well plate was seeded with keratinocytes then placed into culture for 24 hours. The culture medium was then replaced with the test medium comprising according to the cases 0 (negative control), one or two tested compounds. The cells were incubated in this test medium for 18 hours then washed and frozen at −80° C. Each condition was carried out in triplicate. Two samples of each triplicate were grouped together, then the RNAm was extracted therefrom using TriPure Isolation Reagent® according to the supplier's recommendations. The ADNc was synthesized via reverse transcription of total RNA by “Transcriptor Reverse Transcriptase” from Roche. Then a quantitative PCR was performed in the presence of a fluorophore. The incorporation of fluorophore in the amplified DNA was measured during the PCR cycles. Two genes were used as a reference (RPS28 ad GADPH), in order to standardize the results. As such the level of expression of the studied genes was compared to the average level of expression of these two reference genes for all of the conditions tested.
(§3) For this test, the source of lycopene is Lyc-o-Mato marketed by Lycored and the source manganese is manganese sulfate.

[2] = system: SPRR2D; experiment: Gene expression (RNAm) of SPRR2D in human keratinocytes NHEK per RT-qPCR; conditions: each compound at 10 μg/ml, 18 hours incubation, standardized to RPS28 and GAPDH
Description: as §1, §2, §3

[3] = system: RPS28; experiment: Gene expression of reference gene RPS28 in human keratinocytes NHEK per RT-qPCR; conditions: each compound at 10 μg/ml, 18 hours incubation
Description: as §1, §2, §3

## manganese sulfate
[1]
  Control (GAPDH) expression expressed as a percentage in relation to the conditions without added compound: 96%
[2]
  SPRR2D expression expressed as a percentage in relation to the conditions without added compound: 106%
[3]
  Control (RPS28) expression expressed as a percentage in relation to the conditions without added compound: 117%
